Measured values from patent US9278982B2, “Targeting human thymidylate kinase induces DNA repair toxicity in malignant tumor cells” (NATIONAL YANG-MING UNIVERSITY, priority 2010, dated 2016).

What was measured:
[1] = tested on: MDA-MB231 cells; test: Comet assay of DNA repair efficiency after doxorubicin; type: cell-based, human; settings: YMU1 treatment, after removal of doxorubicin (0.1 μM)
Experimental: FIG. 15. […] DNA repair efficiency was measured by comet assay at indicated time after removal of doxorubicin (0.1 μM) in MDA-MB231 cells. Image of DNA comet was acquired and quantified by using scion image software for tail moment determination. Data were expressed as mean±s.d. by counting at least 70 comets per sample in 3 independent experiments. **, P<0.01 based on a two-tailed Student's t-test.
Alkaline comet assays were performed using a Trevigen's Comet Assay kit (4250-050-k) according to the manufacturer's instruction. DNA was stained with SYBR Green, and slides were photographed digitally (Olympus BX51 microscope and Olympus camera). Tail moments were analyzed using Scoin Image software.

[2] = biological target: T1, TMPK (Homo sapiens, UniProt P23919); test: Luciferase-coupled TMPK assay; type: biochemical; parameters: GST (N, cleaved yes); made in house; host or cells: E. coli JM109 (pGEX-2T-hTMPK); settings: purified hTMPK protein (0.5 μg), 10 min preincubation; read-out: IC50 against hTMPK
T1 sequence (P23919 1-212): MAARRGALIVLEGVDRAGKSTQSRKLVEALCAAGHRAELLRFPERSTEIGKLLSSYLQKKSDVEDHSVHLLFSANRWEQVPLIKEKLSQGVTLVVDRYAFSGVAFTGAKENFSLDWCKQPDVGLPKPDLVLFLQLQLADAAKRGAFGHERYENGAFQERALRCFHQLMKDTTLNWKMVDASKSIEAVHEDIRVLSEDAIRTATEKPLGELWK
Experimental: FIG. 12. Identification of a novel hTMPK inhibitor. (A) A screen of TMPK inhibitor by luciferase-coupled assay. (B) The chemical structures of YMU1 (compound 21) and related molecules. (C) Effect of YMU1 and derivative compounds on hTMPK inhibition using purified hTMPK protein (0.5 μg) with 10 min preincubation prior to reaction using luciferase-coupled TMPK analysis. (D) Effect of YMU1 on activity of purified TMPK (0.5 μg) and GST-hTK1 protein (5 μg) with 10 min preincubation prior to reaction. Data represent mean±s.d. (n=4) (E) Molecular models of the TMPK-YMU1 complex. Left panel: TMPK/ATP/Mg+2; right panel: TMPK/YMU1. The TMPK is represented in surface electrostatic potential (upper) and structural ribbon (lower). ATP and YMU1 are shown in green and blue stick, respectively, with colored atom (O, red; S, yellow; P, orange). TMP is shown in white backbone and Mg+2 in purple. Arrow indicates the position of Asp15.
Based on the functional requirement of TMPK in DNA repair specifically in tumor cells with elevated level of R2 expression, we searched for inhibitors of hTMPK that might be useful in selectively sensitizing tumor cells to doxorubicin. […] The synthetic procedure and structural elucidation of YMU1 (compound 21) are described in the Methods of the Invention section of the application.
The TMPK reaction was started by adding purified hTMPK in 50 μl of TMPK assay buffer (100 mM Tris-HCl, pH 7.5, 100 mM KCl, 10 mM MgCl2, 50 μM ATP and 100 μM dTMP) in 96 wells plate at 25° C. for 10 min and terminated by adding 200 μl of DTNB (100 μM), followed by transferring 10 μl of reaction solution to a white 96-wellplate containing 90 μl of luciferase assay buffer (50 mM Glycine, 0.5 mM EDTA and 5 mM EDTA, pH 7.0, 0.1 μg of luciferase, 50 μM luciferin and 0.1% BSA). The luminescence was measured with a luminescence counter (Packard).

CCOC(=O)N1CCN(C(=O)Cn2sc3nc(C)cc(C)c3c2=O)CC1 [compound 21, Ethyl 4-(2-(4,6-dimethyl-3-oxoisothiazolo[5,4-b]pyridin-2(3H)-yl)acetyl) piperazine-1-carboxylate]
DNA repair (comet assay, tail moment) [1]: impairment of DNA repair | IC50 [2]: 610 ± 20 nM
